Consider 2 compounds from patent publication US20260262643A1, “HERBICIDAL BENZOXAZINES” (FMC CORPORATION, priority 2022, published 2026).

Read-outs that look alike come from different tables or passages of the source.

In one test the test system is blackgrass. Put plainly: Test A postemergence. Format: in vivo, Alopecurus myosuroides. The conditions noted are these: Alopecurus myosuroides, post-emergence, 240 h; for pest or weed control at 125 g/ha: 125 g ai/ha; for pest or weed control at 500 g/ha: 500 g ai/ha. The method, boiled down:
(§1)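 Weeds and crops in loam–sand blend were sprayed preemergence onto soil or postemergence at 2–10 cm (one- to two-leaf stage). Test chemicals were in a non-phytotoxic solvent with surfactant. After 10 days in the greenhouse, injury was rated visually against untreated controls on a 0 (no effect) to 100 (complete control) scale.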

The test system of another test is ducksalad. Put plainly: Test B flooded paddy test. Format: in vivo, Heteranthera limosa. The conditions noted are these: Heteranthera limosa, 312 h, 250 g ai/ha, Flood, 13 days, 0 to 100 scale (0 no effect, 100 complete control); read-out: Plant response rating, Ducksalad. The method, boiled down:
(§2)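 Two-leaf plants, 3 cm flood, in-water application, 13-day greenhouse hold, visual 0–100 rating vs untreated checks.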

Test [1] deals with ragweed. Put plainly: Test A preemergence. Format: in vivo, Ambrosia artemisiifolia. The conditions noted are these: Ambrosia artemisiifolia, pre-emergence, 240 h, read-out: Plant response rating, Ragweed; for pest or weed control at 125 g/ha: 125 g ai/ha; for pest or weed control at 500 g/ha: 500 g ai/ha. The method, boiled down: as §1
In a further test the test system is corn. Put plainly: Test A preemergence. The settings on record: Zea mays, pre-emergence, 240 h; for Corn plant response rating (crop injury, 0 = no effect, 100 = complete kill) at 125 g/ha: 125 g ai/ha; for Corn plant response rating (crop injury, 0 = no effect, 100 = complete kill) at 500 g/ha: 500 g ai/ha. Format: in vivo, Zea mays. The method, boiled down: as §1

Test [2] has as its system wheat. The test is described as follows: Test A postemergence. It counts as in vivo, Triticum aestivum. The settings on record: Triticum aestivum, post-emergence, 240 h, postemergence, 10 days, 0 to 100 scale (0 no effect, 100 complete control); for plant injury at 500 g/ha: 500 g ai/ha, visual injury, read-out: Plant response rating, Wheat. The method, boiled down:
as §1

The test system of the next test is goosegrass. The test is described as follows: Test A postemergence. It counts as in vivo, Eleusine indica. The conditions noted are these: Eleusine indica, post-emergence, 240 h, postemergence, 10 days, 0 to 100 scale (0 no effect, 100 complete control); for pest or weed control at 125 g/ha: 125 g ai/ha; for pest or weed control at 500 g/ha: 500 g ai/ha. The method, boiled down:
as §1

The subject of a further test is soybean. Put plainly: Test A preemergence. It counts as in vivo, Glycine max. The conditions noted are these: Glycine max, pre-emergence, 240 h, read-out: Plant response rating, Soybean; for plant injury at 125 g/ha: 125 g ai/ha; for plant injury at 500 g/ha: 500 g ai/ha. The method, boiled down:
as §1

Test [3] relates to kochia. Put plainly: Test A preemergence. Format: in vivo, Bassia scoparia. The settings on record: Bassia scoparia, pre-emergence, 240 h, read-out: Plant response rating, Kochia; for pest or weed control at 125 g/ha: 125 g ai/ha; for pest or weed control at 500 g/ha: 500 g ai/ha. The method, boiled down: as §1
Test [4] relates to ragweed. The test is described as follows: Test A postemergence. Format: in vivo, Ambrosia artemisiifolia. The conditions noted are these: Ambrosia artemisiifolia, post-emergence, 240 h, postemergence, 10 days, 0 to 100 scale (0 no effect, 100 complete control); for pest or weed control at 500 g/ha: 500 g ai/ha, visual injury, read-out: Plant response rating, Ragweed. The method, boiled down:
as §1

A further test deals with rice. The test is described as follows: Test B flooded paddy test. Format: in vivo, Oryza sativa. The conditions noted are these: Oryza sativa, 312 h; 250 g ai/ha, Flood, 13 days, 0 to 100 scale (0 no effect, 100 complete control); read-out: Plant response rating, Rice. The method, boiled down: as §2
Test [5] relates to kochia. The test is described as follows: Test A postemergence. It counts as in vivo, Bassia scoparia. The settings on record: Bassia scoparia, post-emergence, 240 h, postemergence, 10 days, 0 to 100 scale (0 no effect, 100 complete control); for pest or weed control at 125 g/ha: 125 g ai/ha; for pest or weed control at 500 g/ha: 500 g ai/ha. The method, boiled down: as §1
Test [6] relates to wheat. Put plainly: Test A preemergence. It counts as in vivo, Triticum aestivum. The conditions noted are these: Triticum aestivum, pre-emergence, 240 h, read-out: Plant response rating, Wheat; for plant injury at 125 g/ha: 125 g ai/ha; for plant injury at 500 g/ha: 500 g ai/ha. The method, boiled down: as §1
In the next test the test system is foxtail, giant. The test is described as follows: Test A postemergence. Format: in vivo, Setaria faberi. The settings on record: Setaria faberi, post-emergence, 240 h, postemergence, 10 days, 0 to 100 scale (0 no effect, 100 complete control); for pest or weed control at 125 g/ha: 125 g ai/ha; for pest or weed control at 500 g/ha: 500 g ai/ha. The method, boiled down: as §1

The mark [7] stands for this setting: postemergence, 10 days, visual injury, 0 to 100 scale (0 no effect, 100 complete control), read-out: Plant response rating, Blackgrass.
The mark [8] stands for this setting: visual injury after 10 days, 0 to 100 scale, 0 is no effect, 100 is complete control.
The mark [9] stands for this setting: 0 to 100 scale (0 no effect, 100 complete control), 10 days.
The mark [10] stands for this setting: visual injury, read-out: Plant response rating, Goosegrass.
Where [11] appears, read: visual injury, read-out: Plant response rating, Kochia.
[12] abbreviates: visual injury, read-out: Plant response rating, Foxtail, Giant.

Regarding `Cc1ccc(-n2cnc(C(C)(C)C)n2)cc1C(=O)N1C[C@H](C)Oc2c(Cl)cccc21` [Compound 76, [(2S)-8-Chloro-2,3-dihydro-2-methyl-4H-1,4-benzoxazin-4-yl][5-[3-(1,1-dimethylethyl)-1H-1,2,4-triazol-1-yl]-2-methylphenyl]methanone], the pest or weed control at 125 g/ha is 70% in the test on blackgrass (setting [7]); 30% in the test on ragweed [1] (setting [8]); 50% in the test with goosegrass (setting [10]); 70% with kochia [3] (setting [8]); 90% with kochia [5] (setting [11]); 90% in the test with foxtail, giant (setting [12]). In addition, the pest or weed control at 500 g/ha in the test with blackgrass (Postemergence, 0 to 100 scale, read-out: Plant response rating, Blackgrass) amounted to 70%; with ragweed [1] (setting [9]) it was 30%; in the test on goosegrass (setting [10]), 80%; in the test with kochia [3] (setting [9]), 100%; in the test with ragweed [4], 60%; in the test on kochia [5] (setting [11]) it was 90%. In the test with foxtail, giant (setting [12]), the pest or weed control at 500 g/ha was determined as 90%. Further, the pest or weed control at 250 g/ha in the test with ducksalad was 20%. In the test with corn (setting [8]), this compound returned a Corn plant response rating (crop injury, 0 = no effect, 100 = complete kill) at 125 g/ha of 40%. The Corn plant response rating (crop injury, 0 = no effect, 100 = complete kill) at 500 g/ha in the test on corn (setting [9]) is 50%. In addition, the plant injury at 500 g/ha worked out at 40% in the test with wheat [2], 100% in the test on soybean (setting [9]) and 90% in the test on wheat [6] (setting [9]). In addition, the plant injury at 125 g/ha is 50% in the test on soybean (setting [8]) and 60% in the test on wheat [6] (setting [8]). In addition, the plant injury at 250 g/ha in the test with rice turned out to be 0%.
Turning to `Cc1ccc(-n2ncnc2C)cc1C(=O)N1C[C@H](C)Oc2c(Cl)cccc21` (single isomer, unassigned) [Compound 126], the pest or weed control at 125 g/ha in the test on blackgrass (postemergence, 10 days, 0 to 100 scale (0 no effect, 100 complete control), read-out: Blackgrass plant response rating) amounted to 0%; in the test with ragweed [1] (setting [8]), 0%; in the test with goosegrass (read-out: Goosegrass plant response rating) it was 0%; in the test with kochia [3] (setting [8]) it was 0%; in the test on ragweed [4] (125 g ai/ha, read-out: Ragweed plant response rating) it was 30%; with kochia [5] (read-out: Kochia plant response rating) it was 10%. For the same compound, in the test with foxtail, giant (read-out: Foxtail, Giant plant response rating), the pest or weed control at 125 g/ha was determined as 0%. Also, the pest or weed control at 500 g/ha in the test with blackgrass (setting [7]) was 40%; in the test with ragweed [1] (setting [8]) it was 0%; in the test on goosegrass (setting [10]), 0%; in the test on kochia [3] (setting [8]), 0%; in the test with ragweed [4] it was 50%; in the test on kochia [5] (setting [11]), 20%. Moreover, in the test on foxtail, giant (setting [12]), the pest or weed control at 500 g/ha came to 70%. Also, the pest or weed control at 250 g/ha in the test with ducksalad turned out to be 0%. In the test on corn (setting [8]), this compound displayed a Corn plant response rating (crop injury, 0 = no effect, 100 = complete kill) at 125 g/ha of 0%. In addition, the Corn plant response rating (crop injury, 0 = no effect, 100 = complete kill) at 500 g/ha with corn (setting [8]) worked out at 40%. The plant injury at 125 g/ha with wheat [2] (125 g ai/ha, read-out: Wheat plant response rating) turned out to be 0%; in the test on soybean (setting [8]), 0%; with wheat [6] (setting [8]) it was 0%. For the same compound, the plant injury at 500 g/ha with wheat [2] is 30%; in the test with soybean (setting [8]), 50%; with wheat [6] (setting [8]) it was 30%. Further, the plant injury at 250 g/ha in the test on rice was found to be 0%.
